ChEMBL document CHEMBL2429745, “Identification of a new class of glucokinase activators through structure-based design” (J Med Chem, 2013)
Activity calls are given as the source filed them. The calls are words filed in the database; no cut-off is given here.

Tested on: Mus musculus
Experiment: Toxicity in C57BL/6J mouse assessed as induction of hypoglycemia at 50 mg/kg, po administered 30 mins prior to glucose challenge measured over 2 hrs
Assay type: organism-based
Parameters: dose 50 mg/kg, route oral
Details: in vivo

| SMILES | Activity |
| --- | --- |
| CC(C)c1csc(Nc2ncc(SCCn3ccnc3)cc2OCc2ccccc2)n1 | Non-toxic |

Tested on: Rattus norvegicus
Experiment: Antidiabetic activity in high fat-fed Zucker diabetic fatty rat assessed as decrease in blood glucose AUC at 50 mg/kg, po after 21 days on high-fat diet measured for 2 hrs post dose by OGTT relative to control
Parameters: scale not given: the % may be the effect or the level left
Details: not given

| SMILES | Activity |
| --- | --- |
| N#C[C@@H]1CCCN1C(=O)CNC12CC3CC(CC(O)(C3)C1)C2 [VILDAGLIPTIN] | 24% |
| CC(C)c1csc(Nc2ncc(SCCn3ccnc3)cc2OCc2ccccc2)n1 | 23% |

Tested on: not listed separately
Experiment: Terminal plasma concentration in C57BL/6J mouse at 50 mg/kg, po administered 30 mins measured after 2.5 hrs
Assay type: ADME, organism-based
Parameters: dose 50 mg/kg, route oral
Details: read-out: Cp(T)

| concentration at 2.5 h | SMILES |
| --- | --- |
| 4500 ng/mL | CC(C)c1csc(Nc2ncc(SCCn3ccnc3)cc2OCc2ccccc2)n1 |

Molecular target: T1, Hexokinase-4 (Homo sapiens, UniProt P35557)
T1 sequence (P35557 whole entry): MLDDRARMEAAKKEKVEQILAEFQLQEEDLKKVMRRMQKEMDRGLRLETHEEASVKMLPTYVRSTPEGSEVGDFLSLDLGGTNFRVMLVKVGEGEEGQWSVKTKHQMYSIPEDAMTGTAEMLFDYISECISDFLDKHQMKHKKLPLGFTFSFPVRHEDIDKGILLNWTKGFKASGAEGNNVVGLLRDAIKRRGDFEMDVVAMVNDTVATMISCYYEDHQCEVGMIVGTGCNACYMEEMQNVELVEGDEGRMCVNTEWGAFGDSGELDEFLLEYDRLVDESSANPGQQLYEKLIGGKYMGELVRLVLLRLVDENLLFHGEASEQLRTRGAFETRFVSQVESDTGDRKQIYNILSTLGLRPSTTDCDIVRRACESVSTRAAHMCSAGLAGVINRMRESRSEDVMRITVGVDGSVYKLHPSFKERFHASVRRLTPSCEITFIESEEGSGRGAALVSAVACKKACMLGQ
Experiment: Allosteric activation of human glucokinase using glucose as substrate measured every 10 secs for 5 mins
Details: not given

| EC50 | SMILES |
| --- | --- |
| 687 nM | Cc1csc(Nc2ncc(Br)cc2OCc2ccccc2)n1 |
| 208 nM | Cc1csc(Nc2ncc(Sc3ccccc3)cc2OCc2ccccc2)n1 |
| 325 nM | Cc1csc(Nc2ncc(SCCn3ccnc3)cc2OCc2ccccc2)n1 |
| 231 nM | Cc1csc(Nc2ncc(Sc3ccccn3)cc2OCc2ccccc2)n1 |
| 796 nM | Cc1csc(Nc2ncc(Cl)cc2OCc2ccccc2)n1 |
| 77 nM | Cc1csc(Nc2ncc(SCc3ccccn3)cc2OCc2ccccc2)n1 |
| 235 nM | Cc1csc(Nc2ncc(SCc3ccccc3)cc2OCc2ccccc2)n1 |

The remaining lines, values behind:

| SMILES | EC50 |
| --- | --- |
| Cc1csc(Nc2ncccc2OCc2cccnc2)n1 | 7780 nM |
| Cc1csc(Nc2ncccc2OCc2ccccn2)n1 | 12300 nM |
| CC(C)Cc1csc(Nc2ncc(Br)cc2OCc2ccccc2)n1 | 356 nM |
| CC(C)c1csc(Nc2ncc(Br)cc2OCc2ccccc2)n1 | 240 nM |
| Cc1csc(Nc2ncccc2OCc2cccc3cccnc23)n1 | 1700 nM |
| CCc1csc(Nc2ncc(Br)cc2OCc2ccccc2)n1 | 562 nM |
| Cc1csc(Nc2ncccc2OCc2cccc(O)c2)n1 | 3440 nM |
| COc1cccc(COc2cccnc2Nc2nc(C)cs2)c1 | 3220 nM |

Tested on: Mus musculus
Experiment: Antidiabetic activity in C57BL/6J mouse assessed as reduction of glucose excursion at 50 mg/kg, po administered 30 mins prior to glucose challenge measured over 2 hrs by OGTT
Assay type: functional, organism-based
Parameters: dose 50 mg/kg
Details: not given

| SMILES | Activity |
| --- | --- |
| CC(C)c1csc(Nc2ncc(SCCn3ccnc3)cc2OCc2ccccc2)n1 | Active |
